Tests used:
[1] = molecular target: MNK2 (Homo sapiens (Human), UniProt Q9HBH9); experiment: MNK Biochemical Enzymatic Assay (ADP-Glo), MNK2 binding assay
How it was run: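 Human MNK1 or MNK2 was preincubated with a 10-point, 1:3 serial dilution of compound for 15 min at 25 °C. Substrate was then added and the reaction ran 60 min at 25 °C. ADP formed was read by ADP-Glo luminescence, and IC50 came from non-linear regression.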

[2] = system: TMD-8 cell p-IF4E; experiment: p-eIF4E Signaling Cellular Assay (CisBio HTRF) in TMD-8 cells; format: cell-based; conditions: 40 min treatment
Procedure: p-eIF4E Signaling Cellular Assay. Phosphorylated eIF4E is assayed using the CisBio p-Eif4E HTRF assay kit. Reagents and equipment used in the assay are listed below, followed by the protocol.
Cell medium: RPMI 1640+10% FBS+1*PS, TMD-8 were cultured as recommended and assayed in exponential growth phase. • a) Plate 30 μL of cells in 384 white assay plate in appropriate medium and proper cell density (20 k/well) based on Optimization at 37° C. under 5% CO2 atmosphere • b) Dispense 90 nL of compounds diluted in DMSO and treat for 40 min at 37° C. under 5% CO2 atmosphere • c) Remove cell supernatant by flicking the plate • d) Add 16 μL of supplemented lysis buffer (1×) for 30 minutes at RT under shaking • e) Add 4 μL of premixed antibody solutions prepared in the detection buffer. Cover the plate with a plate sealer. Incubate 0/N at RT • f) Read the fluorescence emission at 665 nm and 620 nm on Envision • g) Data analysis • (1) Ratio […] signal is calculated for each well • (2) % Inhibition is calculated as follow:
% inhibition=100−(Signalcmpd-SignalAve_PC)/(SignalAve_VC-SignalAve_PC)×100. • (3) Calculate IC50 and Plot effect-dose curve of cmpds:
Calculate IC50 by fitting % Inhibition values and log of compound concentrations to nonlinear regression (dose response−variable slope) with Graphpad 8.0.
Y=Bottom+(Top−Bottom)/(1+10^((Log IC50−X)*Hill Slope)) • X: log of Inhibitor concentration; Y: % Inhibition.

MNK2, sequence (Q9HBH9 whole entry): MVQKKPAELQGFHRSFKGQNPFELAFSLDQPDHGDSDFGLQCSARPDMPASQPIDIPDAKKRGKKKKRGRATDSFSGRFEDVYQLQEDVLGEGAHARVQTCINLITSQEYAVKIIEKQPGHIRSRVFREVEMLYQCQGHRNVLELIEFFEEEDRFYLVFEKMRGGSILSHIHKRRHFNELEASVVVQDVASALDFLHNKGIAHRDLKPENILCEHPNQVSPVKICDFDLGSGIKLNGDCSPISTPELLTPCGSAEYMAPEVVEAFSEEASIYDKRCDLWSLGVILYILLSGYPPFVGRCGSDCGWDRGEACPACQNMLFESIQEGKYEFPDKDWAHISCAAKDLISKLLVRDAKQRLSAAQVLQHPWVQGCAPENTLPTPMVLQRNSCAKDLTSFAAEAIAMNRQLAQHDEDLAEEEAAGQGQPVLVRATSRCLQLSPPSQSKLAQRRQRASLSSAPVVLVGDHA

| Compound | IC50 [1] [nM] | IC50 ([2]; Homo sapiens, TMD8, 40 min) [nM] | IC50 [2] [nM] |
| --- | --- | --- | --- |
| O=C1NC2(CCCCC2)c2cc(Nc3cc(NC4CCOC4)ncn3)sc21 (stereo not shown) [Compound XXIII-Y, 2′-((6-((tetrahydrofuran-3-yl)amino)pyrimidin-4-yl)amino)spiro[cyclohexane-1,4′-thieno[2,3-c]pyrrol]-6′(5′H)-one] | 0.1 to 10 | 10 to 100 |  |
| O=C1NC2(CCCCC2)c2cc(Nc3cc(N[C@H]4CCCOC4)ncn3)sc21 [Compound XXIV-A, (S)-2′-((6-((tetrahydro-2H-pyran-3-yl)amino)pyrimidin-4-yl)amino)spiro[cyclohexane-1,4′-thieno[2,3-c]pyrrol]-6′(5′H)-one] | 0.1 to 10 | 100 to 1000 |  |
| O=C1NC2(CCCCC2)c2cc(Nc3ccnc(N[C@H]4CCOC4)c3)sc21 [Compound XXIV-B, (S)-2′-((2-((tetrahydrofuran-3-yl)amino)pyridin-4-yl)amino)spiro[cyclohexane-1,4′-thieno[2,3-c]pyrrol]-6′(5′H)-one] | 0.1 to 10 | 10 to 100 |  |
| O=C1NC2(CCCCC2)c2cc(Nc3cc(NCC4CCCC4)ncn3)sc21 [Compound XXIV-H, 2′-((6-((cyclopentylmethyl)amino)pyrimidin-4-yl)amino)spiro[cyclohexane-1,4′-thieno[2,3-c]pyrrol]-6′(5′H)-one] | 10 to 100 | 10 to 100 |  |
| O=C1NC2(CCCCC2)c2cc(Nc3cc(NC(=O)C4CCOC4)ncn3)sc21 (stereo not shown) [Compound XXIV-I, N-(6-((6′-oxo-5′,6′-dihydrospiro[cyclohexane-1,4′-thieno[2,3-c]pyrrol]-2′-yl)amino)pyrimidin-4-yl)tetrahydrofuran-3-carboxamide] | 0.1 to 10 | 100 to 1000 |  |
| Cc1cc(Nc2cc(N)ncn2)[n+]([O-])c2c1C(=O)NC21CCCCC1 [Compound XXIX, 2′-((6-Aminopyrimidin-4-yl)amino)-4′-methyl-5′-oxo-5′,6′-dihydrospiro [cyclohexane-1,7′-pyrrolo[3,4-b]pyridine] 1′-oxide] | 0.1 to 10 | 10 to 100 |  |
| Cc1ccc(Nc2cc(Nc3cc(C)c4c([n+]3[O-])C3(CCCCC3)NC4=O)ncn2)nc1 [Compound XXIX-AAA, 4′-methyl-2′-((6-((5-methylpyridin-2-yl)amino)pyrimidin-4-yl)amino)-5′-oxo-5′,6′-dihydrospiro[cyclohexane-1,7′-pyrrolo[3,4-b]pyridine] 1′-oxide] | 0.1 to 10 | 0.1 to 10 |  |
| Cc1cc(Nc2cc(Nc3ccon3)ncn2)[n+]([O-])c2c1C(=O)NC21CCCCC1 [Compound XXIX-AAD, 2′-((6-(isoxazol-3-ylamino)pyrimidin-4-yl)amino)-4′-methyl-5′-oxo-5′,6′-dihydrospiro[cyclohexane-1,7′-pyrrolo[3,4-b]pyridine] 1′-oxide] | 0.1 to 10 | 0.1 to 10 |  |
| CO[C@H]1C[C@@H](Nc2cc(Nc3cc(C)c4c([n+]3[O-])C3(CCCCC3)NC4=O)ncn2)C1 [Compound XXIX-AAE, 2′-((6-((cis-3-methoxycyclobutyl)amino)pyrimidin-4-yl)amino)-4′-methyl-5′-oxo-5′,6′-dihydrospiro[cyclohexane-1,7′-pyrrolo[3,4-b]pyridine] 1′-oxide] | 0.1 to 10 | 0.1 to 10 |  |
| Cc1ccnc(Nc2cc(Nc3cc(C)c4c([n+]3[O-])C3(CCCCC3)NC4=O)ncn2)c1 [Compound XXIX-AAI, 4′-methyl-2′-((6-((4-methylpyridin-2-yl)amino)pyrimidin-4-yl)amino)-5′-oxo-5′,6′-dihydrospiro[cyclohexane-1,7′-pyrrolo[3,4-b]pyridine] 1′-oxide] | 0.1 to 10 | 0.1 to 10 |  |
| Cc1cc(Nc2cc(Nc3ccc(N4C[C@@H](C)N[C@@H](C)C4)cn3)ncn2)[n+]([O-])c2c1C(=O)NC21CCCCC1 [Compound XXIX-AAN, 2′-((6-((5-(cis-3,5-dimethylpiperazin-1-yl)pyridin-2-yl)amino)pyrimidin-4-yl)amino)-4′-methyl-5′-oxo-5′,6′-dihydrospiro[cyclohexane-1,7′-pyrrolo[3,4-b]pyridine]1′-oxide] | 0.1 to 10 | 0.1 to 10 |  |

Now from value to compound:

| IC50 [1] [nM] | IC50 ([2]; Homo sapiens, TMD8, 40 min) [nM] | IC50 [2] [nM] | Compound |
| --- | --- | --- | --- |
| 0.1 to 10 | 10 to 100 |  | O=C1NC2(CCCCC2)c2cc(Nc3cc(N[C@H]4CCOC4)ncn3)sc21 [Compound XXIV-C, (S)-2′-((6-((tetrahydrofuran-3-yl)amino)pyrimidin-4-yl)amino)spiro[cyclohexane-1,4′-thieno[2,3-c]pyrrol]-6′(5′H)-one] |
| 0.1 to 10 | 100 to 1000 |  | CNC(=O)Nc1cc(Nc2cc3c(s2)C(=O)NC32CCCCC2)ncn1 [Compound XXIV-G, 1-methyl-3-(6-((6′-oxo-5′,6′-dihydrospiro[cyclohexane-1,4′-thieno[2,3-c]pyrrol]-2′-yl)amino)pyrimidin-4-yl)urea] |
| 0.1 to 10 | 100 to 1000 |  | Cn1cc(Nc2cc(Nc3cc4c(s3)C(=O)NC43CCCCC3)ncn2)cn1 [Compound XXIV-K, 2′-((6-((1-methyl-1H-pyrazol-4-yl)amino)pyrimidin-4-yl)amino)spiro[cyclohexane-1,4′-thieno[2,3-c]pyrrol]-6′(5′H)-one] |
| 0.1 to 10 | 0.1 to 10 |  | Cc1cc(Nc2cc(N[C@H]3CCOC3)ncn2)[n+]([O-])c2c1C(=O)NC21CCCCC1 [Compound XXIX-A, (S)-4′-methyl-5′-oxo-2′-((6-((tetrahydrofuran-3-yl)amino)pyrimidin-4-yl)amino)-5′,6′-dihydrospiro[cyclohexane-1,7′-pyrrolo[3,4-b]pyridine] 1′-oxide] |
| 0.1 to 10 | 0.1 to 10 |  | CC(=O)N(C)c1cccc(Nc2cc(Nc3cc(C)c4c([n+]3[O-])C3(CCCCC3)NC4=O)ncn2)n1 [Compound XXIX-AA, 4′-methyl-2′-((6-((6-(N-methylacetamido)pyridin-2-yl)amino)pyrimidin-4-yl)amino)-5′-oxo-5′,6′-dihydrospiro[cyclohexane-1,7′-pyrrolo[3,4-b]pyridine] 1′-oxide] |
| 0.1 to 10 |  | 10 to 100 | Cc1cc(Nc2cc(N[C@H]3C[C@@](C)(O)C3)ncn2)[n+]([O-])c2c1C(=O)NC21CCCCC1 [Compound XXIX-AAC, 4′-methyl-5′-oxo-2′-[(6-{[trans-3-hydroxy-3-methylcyclobutyl]amino}pyrimidin-4-yl)amino]-6′H-spiro[cyclohexane-1,7′-pyrrolo[3,4-b]pyridin]-1′-ium-1′-olate] |
| 0.1 to 10 | 0.1 to 10 |  | Cc1cc(Nc2cc(Nc3ccc(N4CCOCC4)cn3)ncn2)[n+]([O-])c2c1C(=O)NC21CCCCC1 [Compound XXIX-AAJ, 4′-methyl-2′-((6-((5-morpholinopyridin-2-yl)amino)pyrimidin-4-yl)amino)-5′-oxo-5′,6′-dihydrospiro[cyclohexane-1,7′-pyrrolo[3,4-b]pyridine] 1′-oxide] |
| 0.1 to 10 | 0.1 to 10 |  | Cc1cc(Nc2cc(Nc3ccc(N4CCNCC4)cn3)ncn2)[n+]([O-])c2c1C(=O)NC21CCCCC1 [Compound XXIX-AAL, 4′-methyl-5′-oxo-2′-[(6-{[5-(piperazin-1-yl)pyridin-2-yl]amino}pyrimidin-4-yl)amino]-6′H-spiro[cyclohexane-1,7′-pyrrolo[3,4-b]pyridin]-1′-ium-1′-olate] |
| 0.1 to 10 | 0.1 to 10 |  | Cc1cc(Nc2cc(Nc3ccc(N4CCCCC4)cn3)ncn2)[n+]([O-])c2c1C(=O)NC21CCCCC1 [Compound XXIX-AAM, 4′-methyl-5′-oxo-2′-((6-((5-(piperidin-1-yl)pyridin-2-yl)amino)pyrimidin-4-yl)amino)-5′,6′-dihydrospiro[cyclohexane-1,7′-pyrrolo[3,4-b]pyridine] 1′-oxide] |

From US20240092799A1, “MNK INHIBITORS” (Hepagene Therapeutics (HK) Limited, priority 2020, published 2024)
